Like-named read-outs stand apart in the source and are kept apart here.

The subject of data set [1] is Artemia nauplii. Further details: method as in PMID 16445096. The settings on record: at 24 and 48 h; cited from earlier work.
Data set [2] relates to HUVEC human umbilical vein endothelial cells. Briefly: MTS cytotoxicity assay, HUVEC normal cells. It counts as cell-based. The settings on record: for cytotoxic effect on HUVEC: 24 h. Here is the method: (§1) Therefore, the precursor acids 2a–c and corresponding pyrrolo[1,2-b]pyridazines 5a–c,f were tested for their potential cytotoxic activity. During the assays, increasing concentrations of the compounds, ranging from […], were added for 24 h or 48 h to cancer LoVo, SK-OV-3, MCF-7, and the reference HUVEC cells, previously cultured for 24 h in 96-well flat bottom plates. […] Then, MTS reagent was added, and cells were incubated for 4 h at 37 °C in a 5% CO2 humidified atmosphere. The absorbance values were spectrophotometrically read to a Dynex ELISA reader at λ = […].
(§2) For the evaluation of the in vitro potential anti-proliferative effects of treatments with the new compounds under study against solid tumor-derived cells, several compound-mediated cytotoxicity assays were performed on three adherent tumor standardized cell lines, and normal human endothelial cells, used as control: the MCF-7 human breast adenocarcinoma and SK-OV-3 human ovary adenocarcinoma cell lines were provided from European Collection of Authenticated Cell Cultures (ECACC), while LoVo, human colorectal adenocarcinoma cell line, and HUVEC human umbilical vein endothelial cells were purchased from American Type Culture Collection (ATCC).
(§3) Adherent cells were cultivated in DMEM/F12 medium added with 2 mM L-glutamine and 10% fetal bovine serum, 100 units/mL penicillin, 100 µg/mL streptomycin (Sigma Aldrich, St. Louis, MO, USA) and incubated at 37 °C in 5% CO2 humidified atmosphere. The stock solutions for cell treatments were prepared by dissolving the synthesized compounds in a minimum amount of DMSO. Working dilutions were prepared from the stock solutions in culture medium before each treatment assay. After 24 h, when cell cultures achieved around 70% confluence, treatments were applied for various periods of time with different concentrations of synthesized compounds or oncolytic drugs, used as positive controls.
(§4) Therefore, cell cultures treated with the new compounds or oncolytic drugs for 24 h or 48 h were further subjected to a colorimetric cell viability method, the MTS assay. The absorbance of probes was read, data were calculated, and percentages of cell viability were assessed.
(§5) The evaluation of the compound-induced cytotoxicity was made using the CellTiter 96 Aqueous One Solution Cell Proliferation Assay (Promega, Madison, WI, USA), a reagent that contains both MTS (3-(4,5-dimethylthiazol-2-yl)-5-(3-carboxymethoxyphenyl)-2-(4-sulfophenyl)-2H-tetrazolium, inner salt) and PES ([…], a cationic dye with high chemical stability that binds to MTS and forms a stable solution).
(§6) Briefly, 1.5 × 10^4 cancer or normal cells were cultured in 100 µL/well for 24 h. After the culture supernatants were discarded, cells were treated for additional 24 h or 48 h with increasing concentrations of new compounds or oncolytic drugs. Following the specific treatments, in each well a volume of 20 µL of coloring mixture reagent of MTS and PES was added, and then the plates were incubated with mild agitation every 20 min for 4 h at 37 °C. The color developed during incubation was spectrophotometrically quantified at λ = 492 nm using a Dynex ELISA reader (DYNEX Technologies—MRS, Chantilly, VA, USA).
(§7) Data were expressed as percentages of cell viability of the treated cells, and were calculated and compared to the untreated cells (considered 100% viable), using the formula:Cell viability (%) = (T − B)/(U − B) × 100 where T = absorbance of treated cells, U = absorbance of untreated cells, and B = absorbance of culture medium (blank), for λ = 492 nm.
(§8) The cell viability data were expressed as the mean values ± standard deviations (SD) of three different experiments (n = 3). […] Moreover, a parallel experiment was performed in the absence of cells, with all the concentrations of the compounds being tested for their potential interference with MTS reagents; then, their absorbance values were extracted during calculations.
A general note: Formazan colour is commonly taken as a measure of viable cells.

The test system of data set [3] is MCF-7 breast adenocarcinoma cells. Put plainly: MTS cytotoxicity assay, MCF-7. The data set is classed as cell-based, human. The conditions noted are these: Homo sapiens, MCF7; for viability at 200 µM: MCF-7, 200 μM; for viability at 200 µM / viability at 40 µM: read-out: cell viability; for viability at 40 µM: MCF-7, 40 μM. Here is the method: as §1, §2, §3, §4
as §5, with “solution). The assay is based on the ability of the metabolically active cells to reduce the yellow tetrazolium salt MTS to a compound that is soluble in culture medium, the colored formazan, followed by the spectrophotometric evaluation of its concentration.” for “solution).”
as §6, §7
The cell viability data were expressed as the mean values ± standard deviations (SD) of three different experiments (n = 3). […]

Data set [4] concerns LoVo colon adenocarcinoma cells. Briefly: MTS cytotoxicity assay, LoVo. The data set is classed as cell-based, human. The conditions noted are these: Homo sapiens. Here is the method: as §1, §2, §3, §4, §5, §6, §7, §8
Data set [5] has the same test system. Put plainly: MTS cytotoxicity assay, LoVo. It counts as cell-based. The conditions noted are these: Homo sapiens, 200 μM, read-out: cell viability.
Data set [6] relates to SK-OV-3 ovary adenocarcinoma cells. Put plainly: MTS cytotoxicity assay, SK-OV-3. The settings on record: Homo sapiens. It counts as cell-based, human. Here is the method:
as §1, §2, §3, §4, §5, §6, §7, §8

The test system is the same in data set [7]. Put plainly: MTS cytotoxicity assay, SK-OV-3. The data set is classed as cell-based. The settings on record: Homo sapiens, SK-OV-3, 40 μM, read-out: cell viability.
The nature of data set [8]: MTS cytotoxicity assay, HUVEC normal cells. The data set is classed as cell-based, human. The settings on record: human, HUVEC human umbilical vein endothelial cells (normal cells), 40 μM, 48 h, read-out: cell viability. Here is the method:
as §1, §2, §3, §4, §5, §6, §7, §8

Setting [9] is: MCF-7, 24 h, read-out: IC50 MCF-7 24 h.
The mark [10] stands for this setting: MCF-7, 48 h, read-out: IC50 MCF-7 48 h.

The term LC50 denotes the concentration lethal to half of the exposed cells or organisms. For the compound `O=c1n(Cl)c(=O)n(Cl)c(=O)n1Cl` [TCIC, trichloroisocyanuric acid], the LC50 in data set [1] was below 1 µM.
The viability is a per cent measure of how many cells are alive, often set against a control. Usually IC50 stands for the point on the concentration scale where inhibition reaches its midpoint. With `O=c1[nH]cc(F)c(=O)[nH]1` [Compound 5-FU, 5-fluorouracil, reference compound], the cell viability entry in data set [2] (200 μM, 48 h) is “no significant effect”. Moreover, the “cytotoxic effect on HUVEC” value in data set [2] is “no remarkable cytotoxic effects”. Besides, the viability at 200 µM was 45.5% in data set [3] (24 h), 18.2% in data set [3] (48 h (drug control)), 42.3% in data set [5] (24 h) and 28.7% in data set [5] (48 h). The IC50 in data set [3] (setting [9]) stood at 80.6 ± 4.39 µM; in data set [3] (setting [10]) it was 60.4 ± 5.04 µM; in data set [4] (24 h, read-out: IC50 LoVo 24 h) it was 76.1 ± 3.09 µM; in data set [4] (48 h, read-out: IC50 LoVo 48 h) it was 66.2 ± 2.66 µM.
Turning to `COc1cccc2c1C(=O)c1c(O)c3c(c(O)c1C2=O)C[C@@](O)(C(=O)CO)C[C@@H]3O[C@H]1C[C@H](N)[C@H](O)[C@H](C)O1` [DOX, doxorubicin, reference compound], the IC50 in data set [6] (SK-OV-3, 24 h, read-out: IC50 Sk-OV-3 24 h) is 55.4 ± 2.98 µM; in data set [6] (SK-OV-3, 48 h, read-out: IC50 Sk-OV-3 48 h), 12.1 ± 0.32 µM; in data set [3] (setting [9]), 14.8 ± 4 µM; in data set [3] (setting [10]), 11.6 ± 0.53 µM. The viability at 40 µM in data set [7] (24 h) was found to be 68.6%; in data set [7] (48 h), 35.2%; in data set [3] (24 h) it was 41.8%; in data set [3] (48 h), 36.7%. In addition, in data set [8], the viability at 48 h, 40 µM was 81.7%. Besides, the “cytotoxic effect on HUVEC” value in data set [2] is “no remarkable cytotoxic effects”.
`OC[P+](CO)(CO)CO` [THPC, tetrakis(hydroxymethyl) phosphonium chloride]: the LC50 in data set [1] is below 1 µM.
